One test deals with T1, human PAC1 (Homo sapiens, UniProt P41586).
T1 construct: 3xHA (N)
T1 sequence (P41586 21-468): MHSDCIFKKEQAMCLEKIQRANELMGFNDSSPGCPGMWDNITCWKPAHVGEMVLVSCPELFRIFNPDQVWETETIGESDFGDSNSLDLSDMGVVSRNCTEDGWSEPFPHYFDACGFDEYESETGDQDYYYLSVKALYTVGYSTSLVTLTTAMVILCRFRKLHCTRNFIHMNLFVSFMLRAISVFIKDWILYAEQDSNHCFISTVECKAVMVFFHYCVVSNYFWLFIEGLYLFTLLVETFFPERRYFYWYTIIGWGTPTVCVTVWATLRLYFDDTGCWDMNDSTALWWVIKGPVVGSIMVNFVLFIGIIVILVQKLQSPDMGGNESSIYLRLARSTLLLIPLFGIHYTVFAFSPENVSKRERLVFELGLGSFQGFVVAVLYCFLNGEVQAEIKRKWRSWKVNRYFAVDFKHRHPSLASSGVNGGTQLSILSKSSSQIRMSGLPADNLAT
The experiment in a line: cAMP accumulation assay in PAC1-CHO cells. Type of test: cell-based. Conditions: for EC50: cAMP stimulation, CHO cells stably expressing human PAC1, 500 μM IBMX, 10 min agonist at 37 °C, 3H-cAMP/PKA competition read-out, Table 3, control has two values (two experiments). As for the experimental part:
In Vitro cAMP Accumulation
(§1) DMEM:F12 (1:1)medium, incubated
(§2) Serial dilutions of different

For the next test, the target named is T2, human VPAC2 (Homo sapiens, UniProt P41587).
T2 construct: 3xHA (N)
T2 sequence (P41587 24-438): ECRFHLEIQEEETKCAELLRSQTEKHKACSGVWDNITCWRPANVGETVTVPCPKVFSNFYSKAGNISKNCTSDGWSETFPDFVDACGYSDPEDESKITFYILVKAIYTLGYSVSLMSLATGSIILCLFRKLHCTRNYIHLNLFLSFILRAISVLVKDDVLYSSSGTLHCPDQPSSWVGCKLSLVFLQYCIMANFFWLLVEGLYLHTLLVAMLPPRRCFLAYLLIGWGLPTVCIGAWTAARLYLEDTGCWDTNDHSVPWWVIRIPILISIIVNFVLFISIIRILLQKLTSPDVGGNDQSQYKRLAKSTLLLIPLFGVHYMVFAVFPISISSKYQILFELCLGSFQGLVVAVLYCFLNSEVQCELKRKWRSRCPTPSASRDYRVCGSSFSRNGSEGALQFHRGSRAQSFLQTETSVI
The test is described as follows: cAMP accumulation assay in VPAC2-CHO cells. Type of test: cell-based. As for the experimental part: as §1, §2
For orientation: Changes in cAMP serve as a functional read-out for many G protein-coupled receptors.

The target of another test is T3, human VPAC1 (Homo sapiens, UniProt P32241).
T3 sequence (P32241 31-457): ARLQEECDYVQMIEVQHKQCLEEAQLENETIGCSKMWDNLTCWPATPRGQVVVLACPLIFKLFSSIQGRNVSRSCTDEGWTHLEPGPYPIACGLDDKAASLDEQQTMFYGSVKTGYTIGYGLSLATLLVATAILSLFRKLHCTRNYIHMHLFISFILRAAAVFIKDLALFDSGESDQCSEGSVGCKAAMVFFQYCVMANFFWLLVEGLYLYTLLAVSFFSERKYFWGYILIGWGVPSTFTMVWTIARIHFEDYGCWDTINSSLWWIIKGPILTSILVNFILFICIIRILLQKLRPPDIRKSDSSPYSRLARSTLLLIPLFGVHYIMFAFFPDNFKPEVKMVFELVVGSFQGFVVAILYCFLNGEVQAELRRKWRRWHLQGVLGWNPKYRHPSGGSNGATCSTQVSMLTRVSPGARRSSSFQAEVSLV
The test is described as follows: cAMP accumulation assay in VPAC1-CHO cells. As to conditions: for Emax: read-out: VPAC1 EMAX.

[1] abbreviates: HA-VPAC2-CHO passage #28, 20,000 cells/well, dilutions from 10 uM, single experiment in duplicate, supplement page S13, read-out: VPAC2-CHO EC50(nM), supplement curve fit.
The mark [2] stands for this setting: cAMP stimulation, CHO cells stably expressing human VPAC2, 500 μM IBMX, 10 min agonist at 37 °C, Table 3, NC = No convergence, read-out: VPAC2 EC50.

Each structure is given as a SMILES string. Where two headings read alike, the source gives them in different places. Non-standard residues stand in square brackets, D forms with d. Residues, ends and D or L forms follow the SMILES beside them. *: point of attachment. X1 = OC[C@H]1O[C@@H](O[C@H]2[C@H](O)[C@@H](O)[C@H](*)O[C@@H]2CO)[C@H](O)[C@@H](O)[C@H]1O; Nva = CCC[C@H](N)C(=O)O; Sar = CNCC(=O)O

In general, Emax refers to the maximal effect, on the per cent scale that the assay sets. What is called EC50 is the concentration needed to bring the measured effect to its halfway point. In the case of `CCC[C@H](NC(=O)[C@H](CCC(N)=O)NC(=O)[C@H](CCCCN)NC(=O)[C@H](CCCNC(=N)N)NC(=O)[C@H](Cc1ccc(O)cc1)NC(=O)[C@H](CCCNC(=N)N)NC(=O)[C@H](CO)NC(=O)[C@H](Cc1ccc(O)cc1)NC(=O)[C@H](CO)NC(=O)[C@H](CC(=O)O)NC(=O)[C@@H](NC(=O)[C@H](Cc1ccccc1)NC(=O)[C@@H](NC(=O)CNC(=O)[C@H](CC(=O)O)NC(=O)[C@H](CO)NC(=O)[C@@H](N)Cc1c[nH]cn1)[C@@H](C)CC)[C@@H](C)O)C(=O)N[C@@H](C)C(=O)N[C@H](C(=O)N[C@@H](CCCCN)C(=O)N[C@@H](CCCCN)C(=O)N[C@@H](Cc1ccc(O)cc1)C(=O)N[C@@H](CC(C)C)C(=O)N[C@@H](CO)C(N)=O)C(C)C` [Compound 1], the Emax on human PAC1 came out at 198%; at human VPAC2 it was 111%; at human VPAC1 it was 42%. Further, the 50% effective concentration (EC50) at human PAC1 worked out at 2.2 nM; at human VPAC2 (setting [1]) it was 576 nM; on human VPAC1, 5.2 nM.
`CCC[C@H](NC(=O)[C@H](CCC(N)=O)NC(=O)[C@H](CCCCN)NC(=O)[C@H](CCCNC(=N)N)NC(=O)[C@H](Cc1ccc(O)cc1)NC(=O)[C@H](CCCNC(=N)N)NC(=O)[C@H](CO)NC(=O)[C@H](Cc1ccc(O)cc1)NC(=O)[C@H](CO)NC(=O)[C@H](CC(=O)O)NC(=O)[C@@H](NC(=O)[C@H](Cc1ccccc1)NC(=O)[C@@H](NC(=O)CNC(=O)[C@H](CC(=O)O)NC(=O)[C@H](CO)NC(=O)[C@@H](N)Cc1c[nH]cn1)[C@@H](C)CC)[C@@H](C)O)C(=O)N[C@@H](C)C(=O)N[C@H](C(=O)N[C@@H](CCCCN)C(=O)N[C@@H](CCCCN)C(=O)N[C@@H](Cc1ccc(O)cc1)C(=O)N[C@@H](CC(C)C)C(=O)N[C@@H](CO[C@@H]1O[C@H](CO)[C@@H](O)[C@H](O)[C@H]1O)C(N)=O)C(C)C` [Compound 2]: the Emax at human PAC1 is 181%; at human VPAC2, 110%; at human VPAC1, 104%. Moreover, the values for the EC50 at human PAC1, on human VPAC2 (setting [1]) and on human VPAC1 were 0.64 nM, 577 nM and 37 nM, respectively. The “selectivity for PAC1 over VPAC1” value on human PAC1 (ratio of cAMP EC50 values (VPAC1/PAC1)) is listed as ~ 58 fold. The “selectivity for PAC1 over VPAC2” value on human PAC1 (ratio of cAMP EC50 values (VPAC2/PAC1)) was ~ 886 fold.
`CCC[C@H](NC(=O)[C@H](CCC(N)=O)NC(=O)[C@H](CCCCN)NC(=O)[C@H](CCCNC(=N)N)NC(=O)[C@H](Cc1ccc(O)cc1)NC(=O)[C@H](CCCNC(=N)N)NC(=O)[C@H](CO)NC(=O)[C@H](Cc1ccc(O)cc1)NC(=O)[C@H](CO)NC(=O)[C@H](CC(=O)O)NC(=O)[C@@H](NC(=O)[C@H](Cc1ccccc1)NC(=O)[C@@H](NC(=O)CNC(=O)[C@H](CC(=O)O)NC(=O)[C@H](CO)NC(=O)[C@@H](N)Cc1c[nH]cn1)[C@@H](C)CC)[C@@H](C)O)C(=O)N[C@@H](C)C(=O)N[C@H](C(=O)N[C@@H](CCCCN)C(=O)N[C@@H](CCCCN)C(=O)N[C@@H](Cc1ccc(O)cc1)C(=O)N[C@@H](CC(C)C)C(=O)N[C@@H](CO[C@@H]1O[C@H](CO)[C@@H](O)[C@H](O)[C@H]1O)C(=O)N[C@@H](CO[C@@H]1O[C@H](CO)[C@@H](O)[C@H](O)[C@H]1O)C(N)=O)C(C)C` [Compound 3]: the Emax at human PAC1 is 152%; on human VPAC2, 128%; on human VPAC1, 147%. In addition, the EC50 was 1.9 nM on human PAC1, 7370 nM at human VPAC2 (setting [2]) and 26 nM at human VPAC1.
For `CCC[C@H](NC(=O)[C@H](CCC(N)=O)NC(=O)[C@H](CCCCN)NC(=O)[C@H](CCCNC(=N)N)NC(=O)[C@H](Cc1ccc(O)cc1)NC(=O)[C@H](CCCNC(=N)N)NC(=O)[C@H](CO)NC(=O)[C@H](Cc1ccc(O)cc1)NC(=O)[C@H](CO)NC(=O)[C@H](CC(=O)O)NC(=O)[C@@H](NC(=O)[C@H](Cc1ccccc1)NC(=O)[C@@H](NC(=O)CNC(=O)[C@H](CC(=O)O)NC(=O)[C@H](CO)NC(=O)[C@@H](N)Cc1c[nH]cn1)[C@@H](C)CC)[C@@H](C)O)C(=O)N[C@@H](C)C(=O)N[C@H](C(=O)N[C@@H](CCCCN)C(=O)N[C@@H](CCCCN)C(=O)N[C@@H](Cc1ccc(O)cc1)C(=O)N[C@@H](CC(C)C)C(=O)N[C@@H](CO[C@@H]1O[C@H](CO)[C@@H](O[C@@H]2O[C@H](CO)[C@H](O)[C@H](O)[C@H]2O)[C@H](O)[C@H]1O)C(N)=O)C(C)C` [Compound 4], the Emax on human PAC1 was 174%; at human VPAC2 it was 169%; on human VPAC1 it was 118%. Further, the EC50 came out at 1.8 nM at human PAC1, 1940 nM on human VPAC2 (setting [2]) and 21 nM at human VPAC1.
Regarding `CCC[C@H](NC(=O)[C@H](CCC(N)=O)NC(=O)[C@H](CCCCN)NC(=O)[C@H](CCCNC(=N)N)NC(=O)[C@H](Cc1ccc(O)cc1)NC(=O)[C@H](CCCNC(=N)N)NC(=O)[C@H](CO)NC(=O)[C@H](Cc1ccc(O)cc1)NC(=O)[C@H](CO)NC(=O)[C@H](CC(=O)O)NC(=O)[C@@H](NC(=O)[C@H](Cc1ccccc1)NC(=O)[C@@H](NC(=O)[C@H](C)NC(=O)[C@H](CC(=O)O)NC(=O)[C@H](CO)NC(=O)[C@@H](N)Cc1c[nH]cn1)[C@@H](C)CC)[C@@H](C)O)C(=O)N[C@@H](C)C(=O)N[C@H](C(=O)N[C@@H](CCCCN)C(=O)N[C@@H](CCCCN)C(=O)N[C@@H](Cc1ccc(O)cc1)C(=O)N[C@@H](CC(C)C)C(=O)N[C@@H](CO[C@@H]1O[C@H](CO)[C@@H](O[C@@H]2O[C@H](CO)[C@H](O)[C@H](O)[C@H]2O)[C@H](O)[C@H]1O)C(N)=O)C(C)C` [Compound 5], the Emax on human PAC1 worked out at 181%; on human VPAC2 it was 139%; on human VPAC1 it was 124%. The EC50 on human PAC1 was determined as 7 nM; on human VPAC2 (setting [2]), 321 nM; at human VPAC1 it was 38 nM.
For the compound `CCC[C@H](NC(=O)[C@H](CCC(N)=O)NC(=O)[C@H](CCCCN)NC(=O)[C@H](CCCNC(=N)N)NC(=O)[C@H](Cc1ccc(O)cc1)NC(=O)[C@H](CCCNC(=N)N)NC(=O)[C@H](CO)NC(=O)[C@H](Cc1ccc(O)cc1)NC(=O)[C@H](CO)NC(=O)[C@H](CC(=O)O)NC(=O)[C@@H](NC(=O)[C@H](Cc1ccccc1)NC(=O)[C@@H](NC(=O)CN(C)C(=O)[C@H](CC(=O)O)NC(=O)[C@H](CO)NC(=O)[C@@H](N)Cc1c[nH]cn1)[C@@H](C)CC)[C@@H](C)O)C(=O)N[C@@H](C)C(=O)N[C@H](C(=O)N[C@@H](CCCCN)C(=O)N[C@@H](CCCCN)C(=O)N[C@@H](Cc1ccc(O)cc1)C(=O)N[C@@H](CC(C)C)C(=O)N[C@@H](CO[C@@H]1O[C@H](CO)[C@@H](O[C@@H]2O[C@H](CO)[C@H](O)[C@H](O)[C@H]2O)[C@H](O)[C@H]1O)C(N)=O)C(C)C` [Compound 6] (H-HSD[Sar]IFTDSYSRYRKQ[Nva]AVKKYLS(X1)-NH2), at human PAC1, the maximum response (Emax) came to 134% and the EC50 amounted to 67 nM. Also, at human VPAC1, the EC50 was found to be 195 nM and the Emax was found to be 107%.

For the origin of these results see PMC8401035, “Synthesis and In Vitro Characterization of Glycopeptide Drug Candidates Related to PACAP1–23” (Molecules, 2021).
